The results in this text go back to patent US6596500B1, “Binding of retinoids to M6P/IGF-II receptor” (The General Hospital Corporation, priority 1998, dated 2003).

Molecules are shown by their SMILES. “Also recorded” adds a separate entry of the source.

In one assay the test system is neonatal rat fibroblasts. Kind of assay: Immunofluorescence of cathepsin B distribution in fibroblasts. The assay is classed as cell-based. Conditions: RA 1 μM for 3 h; neonatal rat fibroblasts. The text has this: FIGS. 8A and 8B are photomicrographs showing effect of retinoic acid on the distribution of cathepsin B in neonatal rat fibroblasts. […] The enzyme was found mainly in the perinuclear area. […] Bar represents 4 μm.
Since biosynthetic transport of lysosomal enzymes from the TGN to endosomes/lysosomes is mainly mediated by the M6P/IGF2R (Sohar et al., 1998, Biochem. J. 330:903-908), an enhanced trafficking of the receptor should lead to an increased translocation of the M6P-containing lysosomal enzymes from the TGN to lysosomes. To test this, we examined the effect of RA on the intracellular distribution of cathepsin B, a lysosomal protease known to be transported in a M6P-dependent manner in fibroblasts (Hanewinkel et al., 1987, J. Diol. Chem. 262:12351-12355). […] The distribution was similar to that of M6P/IGF2R (shift from perinuclear area to cytoplasmic vesicles throughout the cytoplasm).
(§1) Intracellular Trafficking Materials Retinoic acid was obtained from Sigma Chem. Co. (St. Louis, Mo.). The synthetic retinoids used (AGN193109, TTNPB) were produced by Allergan Inc. (Irvine, Calif.). Stably-transfected P388D1 cells re-expressing the M6P/IGF2R were provided by Dr. William S. Sly (St. Louis University). The rabbit polyclonal antibody against the rat M6P/IGF-II receptor was a gift from Dr. R.G. MacDonald (University of Nebraska). […]

In a further assay the target is M6P/IGF2R (Rattus norvegicus, UniProt G3V824). Kind of assay: Immunofluorescence of M6P/IGF2R distribution in fibroblasts. Type of assay: cell-based. Set-up: endogenous in cells; host or cells: primary neonatal rat cardiac fibroblasts. The settings on record: RA 0.25-1 μM for 2-3 h; neonatal rat fibroblasts.
Source text: FIGS. 7A and 7B are photo micrographs showing the effect of retinoic acid on the distribution of the M6P/IGF2R in neonatal rat fibroblasts. […] The receptor was concentrated primarily in the perinuclear structure (probably the TGN area). […] Bar represents 4 μm.
To determine if RA affects intracellular trafficking of the M6P/IGF2R, distribution of the receptor in neonatal rat fibroblasts with or without RA treatment was visualized by immunofluorescence. The primary antibody used to target the receptor was a polyclonal anti-rat M6P/IGF2R (full length) rabbit IgG with high specificity. A non-immuno-rabbit IgG was used as a negative control. As indicated by fluorescence (FIGS. 7A and 7B), the M6P/IGF2R in the fibroblasts is normally concentrated primarily in the perinuclear structure (probably the TGN). […] This indicated a potentiating effect of RA on the trafficking of the M6P/IGF2R from the TGN to the endosomes/lysosomes.
as §1

The target in a further assay is T1, M6P/IGF-II receptor (Rattus norvegicus, UniProt G3V824).
T1 construct: cultured neonatal rat cardiac myocytes, which were known to express high levels of the M6P/IGF-II receptor; endogenous in cells; host or cells: primary neonatal rat cardiac myocytes
As to the kind of experiment: Internalization of 125I-IGF-II in cultured cardiac myocytes. Type of assay: cell-based. Conditions: RA 2 μM; 2 h. The method, then:
FIG. 5 is a histogram summarizing data on the effect of RA on the internalization of ^125I-IGF-II. Assay was performed by incubating cells at […] for 2 h in media (150 mM NaCl, 5 mM KCl, 1.2 mM MgSO4, 8 mM glucose, 100 mM Hepes, pH 7.6) or F-10 culture medium containing ^125I-IGF-II (0.5 ng/ml) with or without excess unlabeled IGF-II (2 μg/ml), in the presence or absence of 2 μM RA. Following the incubation, the cells were washed three times with ice-cold PBS, and cell-associated radioactivity was determined by a gamma counter.
The primary functions of the Man-6-P/IGF-II receptor are to mediate endocytosis of extracellular M6P-containing proteins (e.g. lysosomal enzymes) and IGF-II and to sort newly synthesized lysosomal enzymes. Therefore, an important question raised by the direct interaction of RA with M6P/IGF2R is whether RA influences these functions of the receptor. To answer this question, we examined the effect of RA on endocytosis of exogenous β-glucuronidase and ^125I-IGF-II and intracellular activity of acid phosphatase in cultured neonatal rat cardiac myocytes, which were known to express high levels of the M6P/IGF-II receptor (Nissley et al., 1993, Mol. Reprod. Dev. 35:408-413). […] This indicated an increased sorting of lysosomal enzymes) (FIGS. 4-6). […]

Assay [1] deals with P388D1 cells. As to the kind of experiment: RA effects on endocytosis, IGF-II internalization and acid phosphatase in receptor-negative cells. Type of assay: cell-based, mouse. The text has this: The primary functions of the Man-6-P/IGF-II receptor are to mediate endocytosis of extracellular M6P-containing proteins (e.g. lysosomal enzymes) and IGF-II and to sort newly synthesized lysosomal enzymes. Therefore, an important question raised by the direct interaction of RA with M6P/IGF2R is whether RA influences these functions of the receptor. To answer this question, we examined the effect of RA on endocytosis of exogenous β-glucuronidase and ^125I-IGF-II and intracellular activity of acid phosphatase in cultured neonatal rat cardiac myocytes, which were known to express high levels of the M6P/IGF-II receptor (Nissley et al., 1993, Mol. Reprod. Dev. 35:408-413). […] This indicated an increased sorting of lysosomal enzymes) (FIGS. 4-6). […] These effects of RA were not altered in the presence of a protein synthesis inhibitor (0.5 mM cycloheximide) and were not observed in the receptor-negative P388D1 cells. This indicated a direct interaction of RA with the M6P/IGF2R protein.

Assay [2] has as its system P388D1 cells. Kind of assay: Morphology, growth and apoptosis of P388D1 cells overexpressing M6P/IGF2R. The assay is classed as cell-based, mouse. Conditions: for Cell morphology: 1 μM RA for 24 hours. The method, then: FIG. 10 is a graph showing the effect of RA treatment on growth rate of P388D1 cells overexpressing M6P/IGF2R protein and P388D1 controls. Open circles, vector control cells without RA treatment; closed circles, vector control cells with 1 μM RA treatment; open triangles, overexpressing cells without RA treatment; closed triangles overexpressing cells with 1 μM RA treatment.
We examined M6P/IGF2R-mediated effects of RA in mouse macrophage P388D1 cells, which are the best characterized cells that lack the M6P/IGF2R protein.

Assay [3] concerns P388D1 cells. As to the kind of experiment: Cathepsin B distribution in P388D1 cells lacking or overexpressing M6P/IGF2R. The assay is classed as cell-based, mouse.
Source text: Intracellular Trafficking Materials Retinoic acid was obtained from Sigma Chem. Co. (St. Louis, Mo.). The synthetic retinoids used (AGN193109, TTNPB) were produced by Allergan Inc. (Irvine, Calif.). Stably-transfected P388D1 cells re-expressing the M6P/IGF2R were provided by Dr. William S. Sly (St. Louis University). The rabbit polyclonal antibody against the rat M6P/IGF-II receptor was a gift from Dr. R.G. MacDonald (University of Nebraska). The rabbit polyclonal anti-rat cathepsin B antibody was purchased from Upstate Biotechnology (N.Y.). The FITC-conjugated goat anti-rabbit IgG was obtained from Jackson ImmunoResearch Laboratories (West Grove, Pa.). Neonatal rat cardiac fibroblasts were prepared from 1-day-old rats using the Neonatal Cardiomyocyte Isolation System (Worthington) and grown on glass coverslips in F-10 nutrient mixture with 10% horse serum and 5% fetal bovine serum (FBS). Cells were used in experiments after 3-5 days of culture. Mouse macrophage P3,88D1 cells were cultured in minimum essential medium-a (MEM-α) supplemented with 10% FBS.
Cells were then fixed with 4% paraformaldehyde in phosphate-buffered saline (PBS) for 30 min. The cells were washed in PBS, permeabilized with 0.1% Triton X-100 in PBS for 5 min, and then incubated with either polyclonal anti-rat M6P/IGF2R antibody or anti-rat cathepsin B antibody (diluted 1:200) at room temperature for 1 h. […]

M6P/IGF2R, sequence (G3V824 36-2481): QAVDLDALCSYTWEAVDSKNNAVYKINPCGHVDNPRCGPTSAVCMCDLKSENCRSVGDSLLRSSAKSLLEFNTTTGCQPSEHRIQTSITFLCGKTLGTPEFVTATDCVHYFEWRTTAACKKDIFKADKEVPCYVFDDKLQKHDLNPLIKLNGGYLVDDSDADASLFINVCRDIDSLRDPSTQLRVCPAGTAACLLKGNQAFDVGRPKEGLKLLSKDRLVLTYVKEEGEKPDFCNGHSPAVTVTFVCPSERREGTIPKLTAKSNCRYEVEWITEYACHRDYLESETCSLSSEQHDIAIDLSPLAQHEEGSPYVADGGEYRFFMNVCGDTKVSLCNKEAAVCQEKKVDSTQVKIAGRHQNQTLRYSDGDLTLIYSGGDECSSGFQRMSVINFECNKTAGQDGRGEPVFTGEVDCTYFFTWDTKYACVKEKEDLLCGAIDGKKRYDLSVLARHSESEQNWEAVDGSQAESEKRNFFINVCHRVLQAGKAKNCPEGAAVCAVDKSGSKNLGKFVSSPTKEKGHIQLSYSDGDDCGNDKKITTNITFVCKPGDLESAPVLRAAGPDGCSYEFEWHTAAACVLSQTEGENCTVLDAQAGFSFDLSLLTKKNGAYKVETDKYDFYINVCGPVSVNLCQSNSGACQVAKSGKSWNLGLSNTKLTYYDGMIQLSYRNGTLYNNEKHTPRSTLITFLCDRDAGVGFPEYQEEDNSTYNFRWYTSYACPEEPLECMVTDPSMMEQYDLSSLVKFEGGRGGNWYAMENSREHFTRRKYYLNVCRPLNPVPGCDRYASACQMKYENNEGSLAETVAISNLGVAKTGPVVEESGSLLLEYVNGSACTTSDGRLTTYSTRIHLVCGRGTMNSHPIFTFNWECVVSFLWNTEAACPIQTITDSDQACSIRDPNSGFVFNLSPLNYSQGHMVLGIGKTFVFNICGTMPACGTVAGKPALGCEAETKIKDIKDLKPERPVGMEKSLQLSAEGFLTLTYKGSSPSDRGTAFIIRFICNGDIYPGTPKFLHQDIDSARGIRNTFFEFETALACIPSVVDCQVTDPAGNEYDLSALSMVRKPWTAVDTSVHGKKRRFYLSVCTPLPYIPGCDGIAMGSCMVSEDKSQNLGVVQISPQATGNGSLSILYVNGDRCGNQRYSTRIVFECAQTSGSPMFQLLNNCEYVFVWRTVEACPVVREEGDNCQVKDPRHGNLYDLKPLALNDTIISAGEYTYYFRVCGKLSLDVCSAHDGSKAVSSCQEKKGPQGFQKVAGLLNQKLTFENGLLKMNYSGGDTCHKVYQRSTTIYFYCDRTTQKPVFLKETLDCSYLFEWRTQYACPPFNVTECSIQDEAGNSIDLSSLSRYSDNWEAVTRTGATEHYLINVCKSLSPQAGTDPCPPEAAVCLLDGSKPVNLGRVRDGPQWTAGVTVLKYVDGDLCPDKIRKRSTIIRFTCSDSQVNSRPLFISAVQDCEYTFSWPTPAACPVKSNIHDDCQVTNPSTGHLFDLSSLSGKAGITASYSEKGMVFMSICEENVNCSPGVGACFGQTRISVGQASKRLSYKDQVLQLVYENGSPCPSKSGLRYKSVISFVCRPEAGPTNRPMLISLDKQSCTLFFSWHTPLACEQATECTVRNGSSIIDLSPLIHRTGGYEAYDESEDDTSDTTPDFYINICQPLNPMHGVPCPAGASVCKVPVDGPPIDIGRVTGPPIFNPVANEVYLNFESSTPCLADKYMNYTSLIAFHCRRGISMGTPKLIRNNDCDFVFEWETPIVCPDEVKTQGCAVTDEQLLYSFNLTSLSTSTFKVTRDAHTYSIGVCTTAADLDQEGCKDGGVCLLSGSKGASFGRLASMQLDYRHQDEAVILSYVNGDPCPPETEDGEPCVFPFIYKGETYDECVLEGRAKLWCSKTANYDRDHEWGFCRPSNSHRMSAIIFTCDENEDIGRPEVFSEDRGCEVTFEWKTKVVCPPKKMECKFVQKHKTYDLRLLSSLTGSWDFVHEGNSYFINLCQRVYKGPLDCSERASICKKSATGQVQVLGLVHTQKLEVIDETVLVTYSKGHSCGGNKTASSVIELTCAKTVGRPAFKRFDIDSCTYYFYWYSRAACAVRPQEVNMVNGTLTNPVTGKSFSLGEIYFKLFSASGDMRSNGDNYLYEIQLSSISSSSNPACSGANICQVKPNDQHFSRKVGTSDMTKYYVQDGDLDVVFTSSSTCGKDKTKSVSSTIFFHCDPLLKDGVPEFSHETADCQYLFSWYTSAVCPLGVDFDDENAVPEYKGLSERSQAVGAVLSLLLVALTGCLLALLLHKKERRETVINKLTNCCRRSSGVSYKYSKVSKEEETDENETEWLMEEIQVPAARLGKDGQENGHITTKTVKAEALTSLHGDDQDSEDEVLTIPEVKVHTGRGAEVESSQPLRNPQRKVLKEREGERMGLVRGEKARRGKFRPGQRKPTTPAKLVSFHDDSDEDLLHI
T1 sequence (G3V824 36-2481): as above

Take `CC1=C(/C=C/C(C)=C/C=C/C(C)=C/C(=O)O)C(C)(C)CCC1` [RA, all-trans-retinoic acid]: the “Intracellular distribution of cathepsin B” value with neonatal rat fibroblasts is reported as “translocated from the perinuclear area to the cytoplasmic vesicles; also recorded: remarkable change in cathepsin B distribution”. In addition, the “Intracellular distribution of M6P/IGF2R” value on M6P/IGF2R is listed as “translocated from perinuclear area to cytoplasmic vesicles; also recorded: movement of the receptors from the perinuclear area to the cytoplasmic vesicles”. Further, the “Increase of internalization of IGF-II” value on M6P/IGF-II receptor is 30-50%. The “Effects of RA on endocytosis, IGF-II internalization and acid phosphatase in receptor-negative cells” value with P388D1 cells [1] is “not observed”. Also, the Cell morphology entry is listed as “remarkable changes in cell morphology” with P388D1 cells [2] (P388D1 cells overexpressing M6P/IGF2R) and “no such changes” in the assay on P388D1 cells [2] (control P388D1 cells transformed with vector alone). Besides, the “Cell growth (proliferation)” value with P388D1 cells [2] (1 μM RA, P388D1 cells overexpressing M6P/IGF2R) is recorded as “grew much more slowly”. Besides, the “Apoptotic cells (fluorescence staining of fragmented DNA)” value in the assay on P388D1 cells [2] (RA, overexpressing P388D1 cells vs controls) is “much higher number of apoptotic cells”. In addition, the “RA-induced cathepsin B translocation” value in the assay on P388D1 cells [3] (M6P/IGF2R-deficient P388D1 cells) is recorded as “No significant effect”; in the assay with P388D1 cells [3] (stably-transfected P388D1 cells overexpressing M6P/IGF2R), “remarkable cathepsin B translocation”.
